Measurements: patent publication US11382985B2, “Anti-tumour immune responses to modified self-epitopes” (Scancell Limited, priority 2015, dated 2022)
Square brackets hold non-standard residues; d marks the D form. Ends that are not written are not given here. Cit = NC(=O)NCCC[C@H](N)C(=O)O

Columns and labels:
LLCDR4 tumour = assay: Lewis lung carcinoma LLC2 with constitutive DR4 (LLCDR4) challenge; format: in vivo, DR4 mice; settings: challenge four days before peptide immunisation; all controls died by day 48
Protocol: (§1) C57BL/6 mice (Charles River, UK), HLA-DR4 mice (Taconic, USA), HHDII/DR1 mice (Pasteur institute, France) and the HHD/HLA-DP4 transgenic strain of mouse as described in patent WO2013/017545 A1 (EMMA repository, France) were used, aged between 8 and 12 weeks, and cared for by the staff at Nottingham Trent University. All work was carried out under a Home Office project licence. Peptides were dissolved in PBS to 1 mg/ml and then emulsified (a series of dilutions) with different adjuvants: CpG and MPLA 6 μg/mouse of each (Invivogen, UK), Incomplete Freund's 50 μl/mouse (Sigma, UK), poly I:C 10 μg/mouse (Invivogen, UK), Imiquimod 25 μg/mouse (Invivogen, UK) and GMCSF 10 μg/mouse (Peprotech, UK). Peptides (25 μg/mouse) were injected subcutaneously at the base of the tail. DNA (1 μg/mouse) was coated onto 1.0 μm gold particles (BioRad, Hemel Hempstead, UK) using the manufacturer's instructions and administered intradermally by genegun (BioRad). Homspera (10 nM/mouse) (PeptideSynthetics, UK) was injected intradermally with genegun immunisation. […]
(§2) For tumour challenge experiments mice were challenged with 2.5×10^4 B16 DR4 cells or 1×10^6 LLC2/LLC2 DR4 cells, […] above. Tumour growth was monitored at 3-4 days intervals and mice were humanely euthanized once tumour reached ≥10 mm in diameter.

parental LLC2 tumour = assay: Parental Lewis lung carcinoma LLC2 challenge; format: in vivo, DR4 mice; settings: challenge four days before peptide immunisation
Protocol: as §1, §2

splenocytes = assay: Peptide immunisation and ex vivo Elispot, DP4 mice; format: in vivo, HHD/HLA-DP4 transgenic mouse; settings: DP4 mice immunised with human 241-260cit
B16DP4 tumour = assay: B16DP4 melanoma tumour challenge; format: in vivo, DP4 transgenic mice; settings: peptide immunisation after B16DP4 implant; unimmunized 10%
Protocol: as §1, with “(BioRad).” for “(BioRad). Homspera (10 nM/mouse) (PeptideSynthetics, UK) was injected intradermally with genegun immunisation.”
(§3) For tumour challenge experiments mice were challenged with 2.5×10^4 B16 DR4 cells or 1×10^6 LLC2/LLC2 DR4 cells, 2.5×10^5 Pan02 DR4 cells in matrigel or 4×10^5 B16 HHDII DP4 cells subcutaneously on the right flank 3 days prior to primary immunisation and then were immunised as above. Tumour growth was monitored at 3-4 days intervals and mice were humanely euthanized once tumour reached ≥10 mm in diameter.

PBMCs [1] = assay: CFSE proliferation assay on PBMCs; format: cell-based, human; settings: Donor 4, day 10
Protocol: PBMC were isolated from freshly drawn heparinised blood by Ficol-Hypaque (Sigma) gradient centrifugation. PBMC (1.5×10^6 cells/well) were stimulated with single peptides (final concentration 10 μg/ml) in RPMI containing 5% pooled autologous human serum, 2 mM glutamine, 20 mM HEPES and Penicillin-streptomycin (1%) in a final volume of 2 ml. As a negative control PBMC were incubated with medium alone. The PBMC were cultured at 37° C. in an atmosphere of 5% CO2 for 7 and 10 days. To assess proliferation at these times points cells were sampled and stained with surface marker CD4 and CD8 antibodies labelled with PE-Cy5 and efluor 450 respectively. After staining cells were fixed and analysed on a Milteny MACSQuant flow cytometer.

PBMCs [2] = assay: Luminex cytokine analysis of PBMC culture supernatants; format: cell-based, human
Protocol: A three-step indirect procedure was used for the multiplexed Luminex assay (Invitrogen) for IgG antibodies to IL-10, IL-17, IFNy, TNFα, IL-2 & IL-4. Standard, control, and unknown sera were diluted 1:2 in 50% assay diluent buffer (Invitrogen) & 50% serum free RPMI. Serial standard dilutions were included in each assay. Each dilution of standard, control, and unknown sera was mixed with a set of coupled Luminex microspheres in 96-well filtration plates (Millipore Multiscreen; Millipore Corporation, Bedford, Mass.) and incubated for 2 hours at room temperature with shaking. Microspheres were collected by vacuum filtration and washed with PBST. Biotinylated detector antibody was added to each well for 1 hour at room temperature with shaking. Microspheres were collected by vacuum filtration and washed with PBST. Streptavidin conjugated R-phycoerythrin—was added to each well. Following a 30 minute incubation and a wash step, microspheres were resuspended in PBST, and read in a Biorad BioPlex Luminex analyzer equipped with an XY platform. Data acquisition and analysis performed with Luminex software (BioPlex Systems)

B16DR4 tumour = assay: B16DR4 melanoma tumour challenge; format: in vivo, DR4 mice
Protocol: C57BL/6 mice (Charles River, UK), HLA-DR4 mice (Taconic, USA), HHDII/DR1 mice (Pasteur institute, France) and the HHD/HLA-DP4 transgenic strain of mouse as described in patent WO2013/017545 A1 (EMMA repository, France) were used, aged between 8 and 12 weeks, and cared for by the staff at Nottingham Trent University. All work was carried out under a Home Office project licence. Peptides were dissolved in PBS to 1 mg/ml and then emulsified (a series of dilutions) with different adjuvants: CpG and MPLA 6 μg/mouse of each (Invivogen, UK), Incomplete Freund's 50 μl/mouse (Sigma, UK), poly I:C 10 μg/mouse (Invivogen, UK), Imiquimod 25 μg/mouse (Invivogen, UK) and GMCSF 10 μg/mouse (Peprotech, UK). Peptides (25 μg/mouse) were injected subcutaneously at the base of the tail. DNA (1 μg/mouse) was coated onto 1.0 μm gold particles (BioRad, Hemel Hempstead, UK) using the manufacturer's instructions and administered intradermally by genegun (BioRad). Homspera (10 nM/mouse) (PeptideSynthetics, UK) was injected intradermally with genegun immunisation. Mice were immunized at either day 0 for peptide immunisation or days, 0 and 7 for genegun immunisation, unless otherwise stated. Spleens were removed for analysis at day 14 for peptide and day 20 for peptide or genegun immunisation unless stated otherwise.
as §3

PBMCs [3] = assay: Thymidine proliferation assay on healthy donor PBMCs; format: cell-based, human; settings: for healthy donors showing a proliferative response: PBMCs from 6 healthy donors, peptide 10 μg/ml, days 4, 7, 11
Protocol: PBMC were isolated from freshly drawn heparinised blood by Ficol-Hypaque (Sigma) gradient centrifugation. PBMC (1.5×10^6 cells/well) were stimulated with single peptides (final concentration 10 μg/ml) in RPMI containing 5% pooled autologous human serum, 2 mM glutamine, 20 mM HEPES and Penicillin-streptomycin (1%) in a final volume of 2 ml. Stimulation with purified protein derivative, PPD (final concentration 10 μg/ml) served as a positive control for the proliferative capacity of PBMC. As a negative control PBMC were incubated with medium alone. The PBMC were cultured at 37° C. in an atmosphere of 5% CO2 for 4, 7 and 11 days. To assess proliferation at these times points 100 μl in triplicate from each culture was aliquoted into a round bottom well of a 96 well plate and 3H-thymidine added (0.0185 MBq/well) and incubated at 37° C. for a further 8 hours. The cultures were harvested onto unifilter plates and incorporation of ^3H-thymidine was determined by β-scintillation counting. The results were assessed by calculating the stimulation index (SI) as the ratio of the mean of counts per minute (cpm) of epitope-stimulated to the mean of unstimulated cultures. The proliferative assay was considered positive when SI >2.5.

With “VIGMDVAASEFF-CIT-SGKYDLD (VIGMDVAASEFF[Cit]SGKYDLD; listed as Homo sapiens) [Enolase 241cit]” the “mice surviving to day 58” value (LLCDR4 tumour) was 40%, the “survival time versus unimmunised control” value (parental LLC2 tumour) was “small but significant increase in survival time” and the “granzyme B release in response to the cit peptide” value (splenocytes) was “show granzyme B release”. For the same substance, the “survival rate after 60 days” value (B16DP4 tumour) was 70%, the “lymphocytes that are CFSE^lowCD4^+” value (PBMCs [1]) was 15% and the “IL-17, Granzyme B and TNFα levels above media background” value (PBMCs [2]; Donor 4 supernatants) was “higher”. The “IFNγ and IL-10 levels above media background” value (PBMCs [2]; Donor 4 supernatants at each time point) was “citrullinated peptide specific responses which increased over time”, the IFNγ response (PBMCs [2]; cultures on 3 donors) was “IFNγ responses” and the “IL-10, TNFα or IL-17 responses” value (PBMCs [2]; cultures on 3 donors) was “low level”. For the same substance, the “IL-17 production by normal donors” value (PBMCs [2]; normal donors stimulated with peptide) was “no IL-17 was produced”, the “animals surviving at day 45” value (B16DR4 tumour; B16DR4 challenge, three doses of 5 μg in GM-CSF over three weeks, control 0% by day 28) was 70% and the “tumour volume, median, day 17 post tumour implant” value (B16DR4 tumour; peptide immunisation after B16DR4 implant, control median 49 mm^3) was 0 mm^3. For the same substance, the “survival after 45 days” value (B16DR4 tumour; peptide immunisation after B16DR4 implant, unimmunised 15%) was 50%, the “proliferation index, mean” value (PBMCs [3]; Donor 1, day 4) was 0.8 and the “proliferation index, mean” value (PBMCs [3]; Donor 1, day 7) was 28.6. The “proliferation index, mean” value (PBMCs [3]; Donor 1, day 11) was 20.4, the “proliferation index, mean” value (PBMCs [3]; Donor 2, day 11) was 2.7 and the “proliferation index, mean” value (PBMCs [3]; Donor 4, day 4) was 12.5. For the same substance, the “proliferation index, mean” value (PBMCs [3]; Donor 4, day 7) was 28, the proliferation index (PBMCs [3]; Donor 4, day 11) was 4.4 and the proliferative response (PBMCs [3]; Donor 6) was “non-responder”. The “healthy donors showing a proliferative response” value (PBMCs [3]) was 5/6 and the “healthy donors showing a proliferative response” value (PBMCs [3]; listed as Enolase 241-260 citrullinated at position 253) was 4/6.
